Test results from US20250197372A1 (priority 2020, published 2025).

What was measured:
Format in all cases: biochemical
[1] = target: T1, recombinant alpha-glucosidase II (murine full-length glucosidase II, alpha and beta subunits, Glu 2) (Mus musculus, UniProt Q8BHN3); test: Alpha-glucosidase II assay (4-methylumbelliferyl-alpha-D-pyranoside substrate, fluorescence); conditions: Glucosidase 2; read-out: Glu2 IC50
T1 construct: made in house; host or cells: HEK-293T cells transduced with BacMam viruses (75% alpha, 25% beta); protein harvested from culture supernatant

[2] = target: rat maltase (partially purified alpha-glucosidase from intestinal rat powder); test: Intestinal alpha-glucosidase assay, maltose substrate (Glucose GO Kit)
Method in brief: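 First step: 60 min, 37 °C, compound with partially purified rat intestinal alpha-glucosidase. Next, maltose or sucrose for 30 min at 37 °C, ended at 90 °C for 5 min. Glucose quantified enzymatically; concentration–inhibition data fitted 4-PL for IC50.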

[3] = target: T2, recombinant alpha-glucosidase I (human full-length glucosidase I, Glu 1) (Homo sapiens, UniProt Q13724); test: Alpha-glucosidase I assay (Amplex Red glucose detection, synthetic trisaccharide substrate); conditions: Glucosidase 1; read-out: Glu 1 IC50
T2 construct: 6-His (C); made in house; host or cells: HEK-293T cells transduced with BacMam virus (virus raised in Sf9)
T2 sequence (Q13724 1-837): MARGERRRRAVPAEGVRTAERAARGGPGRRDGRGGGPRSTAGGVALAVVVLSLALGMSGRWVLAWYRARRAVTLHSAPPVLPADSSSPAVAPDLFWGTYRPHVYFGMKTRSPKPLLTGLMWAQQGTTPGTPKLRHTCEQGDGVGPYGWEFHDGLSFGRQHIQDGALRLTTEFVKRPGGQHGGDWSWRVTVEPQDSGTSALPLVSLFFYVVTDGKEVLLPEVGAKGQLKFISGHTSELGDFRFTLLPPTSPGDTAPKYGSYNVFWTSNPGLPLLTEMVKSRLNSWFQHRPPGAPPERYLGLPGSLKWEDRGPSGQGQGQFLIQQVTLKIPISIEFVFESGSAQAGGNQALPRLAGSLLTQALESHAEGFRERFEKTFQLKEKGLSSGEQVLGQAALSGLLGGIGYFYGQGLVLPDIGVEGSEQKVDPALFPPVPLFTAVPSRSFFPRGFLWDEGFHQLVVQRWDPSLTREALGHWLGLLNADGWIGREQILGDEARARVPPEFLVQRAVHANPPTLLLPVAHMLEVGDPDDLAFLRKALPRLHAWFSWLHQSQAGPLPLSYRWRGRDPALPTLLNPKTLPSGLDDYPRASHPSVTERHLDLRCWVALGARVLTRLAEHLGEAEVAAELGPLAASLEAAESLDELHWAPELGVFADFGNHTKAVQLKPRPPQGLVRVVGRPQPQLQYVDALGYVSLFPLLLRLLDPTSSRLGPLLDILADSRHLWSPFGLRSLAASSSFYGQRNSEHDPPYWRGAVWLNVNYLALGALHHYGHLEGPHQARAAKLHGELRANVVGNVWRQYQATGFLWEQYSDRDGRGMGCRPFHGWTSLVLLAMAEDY
Method in brief: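 Human full-length glucosidase I, His-tagged, […] and Ni-purified. Enzyme preincubated with compound dilutions 60 min at 37° C, then synthetic trisaccharide substrate 90 min at 37° C; stopped with 1.5M Tris pH 8.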

[4] = target: rat sucrase (partially purified alpha-glucosidase from intestinal rat powder) (Rattus norvegicus, UniProt P23739); test: Intestinal alpha-glucosidase assay, sucrose substrate (Glucose GO Kit)
Method in brief: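 Rat intestinal enzyme prep + test cpd dilutions, 60 min 37 °C; add maltose (maltase) or sucrose (sucrase), 30 min 37 °C; stop 90 °C 5 min. Glucose readout (glucose oxidase kit). IC50 from 4-PL fit of % inhibition vs conc.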

T1 sequence (O08795 15-521): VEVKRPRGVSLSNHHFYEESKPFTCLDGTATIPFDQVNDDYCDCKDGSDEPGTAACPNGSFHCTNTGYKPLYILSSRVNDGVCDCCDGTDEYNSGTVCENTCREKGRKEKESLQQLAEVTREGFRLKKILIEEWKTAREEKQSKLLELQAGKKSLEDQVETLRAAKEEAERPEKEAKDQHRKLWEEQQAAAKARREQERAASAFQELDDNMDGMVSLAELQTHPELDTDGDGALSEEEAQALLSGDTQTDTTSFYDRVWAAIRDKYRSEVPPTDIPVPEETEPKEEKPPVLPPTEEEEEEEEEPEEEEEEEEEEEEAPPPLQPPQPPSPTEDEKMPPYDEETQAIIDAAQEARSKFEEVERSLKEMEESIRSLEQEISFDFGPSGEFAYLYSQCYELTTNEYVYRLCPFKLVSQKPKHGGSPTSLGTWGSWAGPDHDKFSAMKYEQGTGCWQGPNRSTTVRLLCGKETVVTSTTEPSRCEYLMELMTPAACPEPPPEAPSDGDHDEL
T1 sequence (Q8BHN3 33-944): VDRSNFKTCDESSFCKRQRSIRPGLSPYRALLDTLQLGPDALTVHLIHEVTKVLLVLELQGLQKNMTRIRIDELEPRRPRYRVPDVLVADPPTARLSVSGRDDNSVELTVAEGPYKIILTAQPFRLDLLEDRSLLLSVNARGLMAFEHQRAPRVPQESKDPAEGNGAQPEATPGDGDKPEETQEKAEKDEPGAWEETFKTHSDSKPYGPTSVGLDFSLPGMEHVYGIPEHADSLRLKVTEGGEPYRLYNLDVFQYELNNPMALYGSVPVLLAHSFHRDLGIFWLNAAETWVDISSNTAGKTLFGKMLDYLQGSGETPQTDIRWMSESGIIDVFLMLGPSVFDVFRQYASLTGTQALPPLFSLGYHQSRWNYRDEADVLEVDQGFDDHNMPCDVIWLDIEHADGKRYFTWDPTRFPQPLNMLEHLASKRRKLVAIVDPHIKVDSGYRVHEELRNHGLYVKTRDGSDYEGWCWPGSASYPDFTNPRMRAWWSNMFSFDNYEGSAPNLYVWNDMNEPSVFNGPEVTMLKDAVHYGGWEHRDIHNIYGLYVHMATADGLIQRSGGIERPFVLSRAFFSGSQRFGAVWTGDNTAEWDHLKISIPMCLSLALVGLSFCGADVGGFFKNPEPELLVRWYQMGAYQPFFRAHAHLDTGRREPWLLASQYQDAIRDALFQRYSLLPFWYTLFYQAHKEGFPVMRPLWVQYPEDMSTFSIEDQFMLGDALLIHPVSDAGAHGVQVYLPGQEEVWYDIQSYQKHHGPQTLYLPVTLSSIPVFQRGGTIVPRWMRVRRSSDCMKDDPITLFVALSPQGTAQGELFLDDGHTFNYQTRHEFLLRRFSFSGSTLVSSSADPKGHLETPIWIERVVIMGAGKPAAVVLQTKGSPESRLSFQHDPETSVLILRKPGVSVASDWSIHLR
rat sucrase (partially purified alpha-glucosidase from intestinal rat powder), sequence (P23739 whole entry): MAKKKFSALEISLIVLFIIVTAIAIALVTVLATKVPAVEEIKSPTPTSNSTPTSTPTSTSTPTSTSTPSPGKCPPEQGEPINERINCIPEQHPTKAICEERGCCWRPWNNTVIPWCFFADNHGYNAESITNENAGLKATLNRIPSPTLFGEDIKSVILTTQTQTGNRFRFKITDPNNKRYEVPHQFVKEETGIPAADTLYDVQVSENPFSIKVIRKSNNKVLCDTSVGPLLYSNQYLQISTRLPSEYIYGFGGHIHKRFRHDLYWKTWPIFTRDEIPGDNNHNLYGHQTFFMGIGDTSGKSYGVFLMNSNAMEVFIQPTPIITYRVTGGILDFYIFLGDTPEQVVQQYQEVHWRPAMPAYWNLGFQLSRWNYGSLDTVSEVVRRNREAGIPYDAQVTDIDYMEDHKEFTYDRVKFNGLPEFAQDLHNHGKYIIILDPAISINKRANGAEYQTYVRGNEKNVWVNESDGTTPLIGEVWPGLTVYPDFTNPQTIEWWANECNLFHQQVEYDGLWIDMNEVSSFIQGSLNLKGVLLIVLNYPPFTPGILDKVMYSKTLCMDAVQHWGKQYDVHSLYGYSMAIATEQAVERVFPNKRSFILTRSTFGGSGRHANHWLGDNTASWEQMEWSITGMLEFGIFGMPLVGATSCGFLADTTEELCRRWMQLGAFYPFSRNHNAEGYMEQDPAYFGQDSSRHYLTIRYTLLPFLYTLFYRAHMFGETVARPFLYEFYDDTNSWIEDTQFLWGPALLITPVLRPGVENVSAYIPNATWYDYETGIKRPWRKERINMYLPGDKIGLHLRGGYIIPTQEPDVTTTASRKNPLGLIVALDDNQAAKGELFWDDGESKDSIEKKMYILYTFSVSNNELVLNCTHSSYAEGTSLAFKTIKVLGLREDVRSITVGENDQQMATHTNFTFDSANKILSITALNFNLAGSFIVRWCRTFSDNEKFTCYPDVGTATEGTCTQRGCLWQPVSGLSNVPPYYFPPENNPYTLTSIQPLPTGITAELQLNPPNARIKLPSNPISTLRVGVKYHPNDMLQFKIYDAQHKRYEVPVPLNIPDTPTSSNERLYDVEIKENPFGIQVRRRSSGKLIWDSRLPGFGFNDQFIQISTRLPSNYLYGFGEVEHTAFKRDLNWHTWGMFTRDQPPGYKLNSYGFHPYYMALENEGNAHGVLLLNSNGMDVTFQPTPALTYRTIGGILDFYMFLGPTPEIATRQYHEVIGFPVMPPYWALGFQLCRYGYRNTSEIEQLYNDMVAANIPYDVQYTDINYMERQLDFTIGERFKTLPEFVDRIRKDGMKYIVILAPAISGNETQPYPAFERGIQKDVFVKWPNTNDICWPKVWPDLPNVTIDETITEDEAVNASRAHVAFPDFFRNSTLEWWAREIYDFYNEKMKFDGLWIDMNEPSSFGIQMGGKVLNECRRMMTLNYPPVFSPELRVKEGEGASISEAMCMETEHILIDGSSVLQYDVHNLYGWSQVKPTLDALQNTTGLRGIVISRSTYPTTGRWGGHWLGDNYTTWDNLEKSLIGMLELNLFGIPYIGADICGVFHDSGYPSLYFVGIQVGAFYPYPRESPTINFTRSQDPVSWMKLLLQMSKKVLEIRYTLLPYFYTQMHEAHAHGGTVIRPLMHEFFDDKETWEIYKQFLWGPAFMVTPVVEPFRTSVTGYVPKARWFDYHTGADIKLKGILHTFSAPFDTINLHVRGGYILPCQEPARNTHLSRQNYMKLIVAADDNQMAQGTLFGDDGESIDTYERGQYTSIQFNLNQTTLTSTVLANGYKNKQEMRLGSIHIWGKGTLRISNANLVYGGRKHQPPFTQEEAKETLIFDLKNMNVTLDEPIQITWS

Row | Structure (SMILES) | IC50 [1] | IC50 [2] | IC50 [3] | IC50 [4]
1 | OC[C@@H]1[C@@H](O)[C@H](O)[C@@H](O)CN1Cc1ccc(CNc2ccc(C3=COCCO3)cc2)cc1 [Compound 1093, (2R,3R,4R,5S)-1-{[4-({[4-(5,6-dihydro-1,4-dioxin-2-yl)phenyl]amino}methyl)phenyl]methyl}-2-(hydroxymethyl)piperidine-3,4,5-triol] | 1040 nM | 2 nM | 12 nM | 7 nM
2 | O=[N+]([O-])c1cc(C2=COCCO2)ccc1NCc1ccc(CN2C[C@H](O)[C@@H](O)[C@H](O)[C@H]2CO)cc1 [Compound 1099, (2R,3R,4R,5S)-1-{[4-({[4-(5,6-dihydro-1,4-dioxin-2-yl)-2-nitrophenyl]amino}methyl)phenyl]methyl}-2-(hydroxymethyl)piperidine-3,4,5-triol] | < 1 nM | < 1 nM | < 1 nM | < 1 nM
3 | OC[C@@H]1[C@@H](O)[C@H](O)[C@@H](O)CN1CCc1cn(CCNc2ccccc2)c2ccccc12 [Compound 1076, (2R,3R,4R,5S)-2-(hydroxymethyl)-1-(2-{1-[2-(phenylamino)ethyl]-1H-indol-3-yl}ethyl)piperidine-3,4,5-triol] | 66 nM | 250 nM | 1310 nM | 854 nM
